Results taken from patent US10428066B2, “Imidazo[4,5-C]pyridine and pyrrolo[2,3-C]pyridine derivatives as SSAO inhibitors” (PROXIMAGEN, LLC, priority 2013, dated 2019).
Where a name gives a salt, the structure may show the parent alone.

Biological target: purified recombinantly expressed human SSAO (Homo sapiens (Human), UniProt Q16853)
Experiment: SSAO enzyme inhibition assay (HRP-coupled hydrogen peroxide detection or 14C-benzaldehyde detection, benzylamine substrate)
Assay type: biochemical
Conditions: human recombinant SSAO, RT
Experimental: All primary assays were performed at RT. with purified recombinantly expressed human SSAO. Enzyme was prepared essentially as described in Öhman et al. (Protein Expression and Purification 46 (2006) 321-331). In addition, secondary- and selectivity assays were performed using SSAO prepared from various tissues or purified rat recombinant SSAO. The enzyme activity was assayed with benzylamine as substrate by measuring either benzaldehyde production, using ^14C-labeled substrate, or by utilizing the production of hydrogen peroxide in a horseradish peroxidase (HRP) coupled reaction. Briefly, test compounds were dissolved in dimethyl sulfoxide (DMSO) to a concentration of 10 mM. Dose-response measurements were assayed by either creating 1:10 serial dilutions in DMSO to produce a 7 point curve or by making 1:3 serial dilutions in DMSO to produce 11 point curves.
In a horseradish peroxidase (HRP) coupled reaction, hydrogen peroxide oxidation of 10-acetyl-3,7-dihydroxyphenoxazine produced resorufin, which is a highly fluorescent compound (Zhout and Panchuk-Voloshina. Analytical Biochemistry 253 (1997) 169-174; Amplex® Red Hydrogen Peroxide/peroxidase Assay kit, Invitrogen A22188). Enzyme and compounds in 50 mM sodium phosphate, pH 7.4 were set to pre-incubate in flat-bottomed microtiter plates for approximately 15 min before initiating the reaction by addition of a mixture of HRP, benzylamine and Amplex reagent. Benzylamine concentration was fixed at a concentration corresponding to the Michaelis constant, determined using standard procedures. Fluorescence intensity was then measured at several time points during 1-2 h, exciting at 544 nm and reading the emission at 590 nm. For the human SSAO assay final concentrations of the reagents in the assay wells were: SSAO enzyme 1 ug/ml, benzylamine 100 uM, Amplex reagent 20 uM, HRP 0.1 U/mL and varying concentrations of test compound. The inhibition was measured as % decrease of the signal compared to a control without inhibitor (only diluted DMSO). The background signal from a sample containing no SSAO enzyme was subtracted from all data points. Data was fitted to a four parameter logistic model and IC50 values were calculated using the GraphPad Prism 4 or XLfit 4 programs.
SSAO activity was assayed using 14C-labeled benzylamine and analysed by measuring radioactive benzaldehyde. In a white 96-well optiplate (Packard), 20 uL of diluted test compound was pre-incubated at room temperature with 20 uL SSAO enzyme for approximately 15 min with continuous agitation. All dilutions were made with PBS. The reaction was initiated by adding 20 uL of the benzylamine substrate solution containing [7-14C] Benzylamine hydrochloride (CFA589, GE Healthcare). The plate was incubated for 1 h as above after which the reaction was stopped by acidification (10 uL 1M aq HCl). Then 90 uL Micro Scint-E solution (Perkin-Elmer) was added to each well and the plate was continuously mixed for 15 min. Phase separation occurred instantly and activity was read in a Topcount scintillation counter (Perkin-Elmer). In the final reaction well, the human recombinant SSAO concentration was 10 ug/ml. In order to optimize sensitivity, the substrate concentration was decreased as compared to the HRP coupled assay in order to get a higher fraction of radioactive product. In the human SSAO assay, benzylamine concentration was 40 uM (0.2 uCi/mL). Data was analysed as above.

Sequence of purified recombinantly expressed human SSAO (Q16853 29-763): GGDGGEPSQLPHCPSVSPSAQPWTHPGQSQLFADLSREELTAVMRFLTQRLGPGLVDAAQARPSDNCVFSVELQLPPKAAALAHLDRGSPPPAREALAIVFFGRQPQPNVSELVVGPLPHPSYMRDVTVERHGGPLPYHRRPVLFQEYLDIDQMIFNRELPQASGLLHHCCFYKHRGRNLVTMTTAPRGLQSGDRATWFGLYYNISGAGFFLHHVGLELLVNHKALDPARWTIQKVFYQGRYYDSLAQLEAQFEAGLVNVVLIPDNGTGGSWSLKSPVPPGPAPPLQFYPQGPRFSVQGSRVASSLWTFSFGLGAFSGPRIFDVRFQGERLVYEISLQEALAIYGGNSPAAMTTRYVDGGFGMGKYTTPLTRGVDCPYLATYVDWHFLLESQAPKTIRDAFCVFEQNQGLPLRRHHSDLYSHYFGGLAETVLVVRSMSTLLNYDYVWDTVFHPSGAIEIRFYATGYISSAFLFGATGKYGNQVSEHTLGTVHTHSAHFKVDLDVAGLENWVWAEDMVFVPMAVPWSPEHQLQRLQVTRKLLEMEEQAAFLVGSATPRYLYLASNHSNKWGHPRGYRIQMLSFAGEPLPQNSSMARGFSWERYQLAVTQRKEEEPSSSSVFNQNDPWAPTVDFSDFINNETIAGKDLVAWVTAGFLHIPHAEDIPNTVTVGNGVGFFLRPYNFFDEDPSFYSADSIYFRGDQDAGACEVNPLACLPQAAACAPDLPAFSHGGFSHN

| IC50 [µM] | SMILES |
| --- | --- |
| 0.2 to 1.2 | Clc1ccc(-n2c(-c3cccnc3)nc3ccncc32)cc1 [Example 1, 3-[3-(4-Chlorophenyl)-3H-imidazo[4,5-c]pyridin-2-yl]pyridine] |
| 0.2 to 1.2 | Clc1ccc(-n2c(-c3ccncc3)nc3ccncc32)cc1 [Example 2, 4-[3-(4-Chlorophenyl)-3H-imidazo[4,5-c]pyridin-2-yl]pyridine] |
| 0.05 to 0.2 | Clc1ccc(-n2c(-c3ccc(CN4CCOCC4)nc3)nc3ccncc32)cc1 [Example 3, 4-({5-[3-(4-Chlorophenyl)-3H-imidazo[4,5-c]pyridin-2-yl]pyridin-2-yl}methyl)morpholine] |
| 0.05 to 0.2 | Clc1ccc(-n2c(-c3cnc(N4CCOCC4)cn3)nc3ccncc32)cc1 [Example 5, 4-{5-[3-(4-Chlorophenyl)-3H-imidazo[4,5-c]pyridin-2-yl]pyrazin-2-yl}morpholine] |
| 0.2 to 1.2 | O=C(c1ccc(-c2nc3ccncc3n2-c2ccc(Cl)cc2)cn1)N1CCOCC1 [Example 6, 4-({5-[3-(4-Chlorophenyl)-3H-imidazo[4,5-c]pyridin-2-yl]pyridin-2-yl}carbonyl)morpholine] |
| 0.05 to 0.2 | Clc1ccc(-n2c(-c3cnc(NC4CCOCC4)cn3)nc3ccncc32)cc1 [Example 7, 5-[3-(4-Chlorophenyl)-3H-imidazo[4,5-c]pyridin-2-yl]-N-(oxan-4-yl)pyrazin-2-amine] |
| 0.05 to 0.2 | Fc1ccc(-n2c(-c3cnc(NC4CC4)nc3)nc3ccncc32)cc1 [Example 10, N-Cyclopropyl-5-[3-(4-fluorophenyl)-3H-imidazo[4,5-c]pyridin-2-yl]pyrimidin-2-amine] |
| 0.05 to 0.2 | O=C1CN(c2ncc(-c3nc4ccncc4n3-c3ccc(F)cc3)cn2)CCN1 [Example 12, 4-{5-[3-(4-Fluorophenyl)-3H-imidazo[4,5-c]pyridin-2-yl]pyrimidin-2-yl}piperazin-2-one] |
| 0.2 to 1.2 | O=C(NC1CC1)c1ccc(-c2nc3ccncc3n2-c2ccc(Cl)cc2)cn1 [Example 14, 5-[3-(4-Chlorophenyl)-3H-imidazo[4,5-c]pyridin-2-yl]-N-cyclopropylpyridine-2-carboxamide] |
| 0.05 to 0.2 | Fc1ccc(-n2c(-c3ccc(C4CCOCC4)nn3)nc3ccncc32)cc1 [Example 15, 3-[3-(4-Fluorophenyl)-3H-imidazo[4,5-c]pyridin-2-yl]-6-(oxan-4-yl)pyridazine] |
| 0.2 to 1.2 | CS(=O)(=O)Nc1ccc(-c2nc3ccncc3n2-c2ccc(Cl)cc2)cn1 [Example 16, N-{5-[3-(4-Chlorophenyl)-3H-imidazo[4,5-c]pyridin-2-yl]pyridin-2-yl}methanesulfonamide] |
| 0.2 to 1.2 | Clc1ccc(-n2c(-c3csc(N4CCNCC4)n3)nc3ccncc32)cc1 [Example 17, 1-{4-[3-(4-Chlorophenyl)-3H-imidazo[4,5-c]pyridin-2-yl]-1,3-thiazol-2-yl}piperazine dihydrochloride] |
| 0.05 to 0.2 | Clc1ccc(-n2c(-c3cnc(N4CCNCC4)o3)nc3ccncc32)cc1 [Example 18, 1-{5-[3-(4-Chlorophenyl)-3H-imidazo[4,5-c]pyridin-2-yl]-1,3-oxazol-2-yl}piperazine dihydrochloride] |
| 0.05 to 0.2 | Clc1ccc(-n2c(-c3cnc(N4CCNCC4)s3)nc3ccncc32)cc1 [Example 19, 1-{5-[3-(4-Chlorophenyl)-3H-imidazo[4,5-c]pyridin-2-yl]-1,3-thiazol-2-yl}piperazine] |
| 0.05 to 0.2 | Fc1ccc(-n2c(-c3cnc(NC4CCOCC4)nc3)nc3ccncc32)cc1 [Example 20, 5-[3-(4-Fluorophenyl)-3H-imidazo[4,5-c]pyridin-2-yl]-N-(oxan-4-yl)pyrimidin-2-amine] |
| 0.05 to 0.2 | Cc1nc(N2CCOCC2)ncc1-c1nc2ccncc2n1-c1ccc(F)cc1 [Example 26, 4-{5-[3-(4-Fluorophenyl)-3H-imidazo[4,5-c]pyridin-2-yl]-4-methylpyrimidin-2-yl}morpholine] |
| 0.05 to 0.2 | COc1nc(N2CCOCC2)ccc1-c1nc2ccncc2n1-c1ccc(F)cc1 [Example 28, 4-{5-[3-(4-Fluorophenyl)-3H-imidazo[4,5-c]pyridin-2-yl]-6-methoxypyridin-2-yl}morpholine] |
| 0.2 to 1.2 | Cc1cc(N2CCOCC2)nc(C)c1-c1nc2ccncc2n1-c1ccc(F)cc1 [Example 29, 4-{5-[3-(4-Fluorophenyl)-3H-imidazo[4,5-c]pyridin-2-yl]-4,6-dimethylpyridin-2-yl}morpholine] |
| 0.2 to 1.2 | Fc1ccc(-n2c(-c3cnc(C4CC4)nc3)nc3ccncc32)cc1 [Example 30, 2-Cyclopropyl-5-[3-(4-fluorophenyl)-3H-imidazo[4,5-c]pyridin-2-yl]pyrimidine] |
| 0.2 to 1.2 | Nc1ncc(-c2nc3ccncc3n2-c2ccc(Cl)cc2)cn1 [Example 31, 5-[3-(4-Chlorophenyl)-3H-imidazo[4,5-c]pyridin-2-yl]pyrimidin-2-amine] |
| 0.2 to 1.2 | Cn1cc(-c2nc3ccncc3n2-c2ccc(Cl)cc2)ccc1=O [Example 33, 5-[3-(4-Chlorophenyl)-3H-imidazo[4,5-c]pyridin-2-yl]-1-methyl-1,2-dihydropyridin-2-one] |
| 0.05 to 0.2 | O=c1cc(-c2nc3ccncc3n2-c2ccc(Cl)cc2F)cc[nH]1 [Example 34, 4-[3-(4-Chloro-2-fluorophenyl)-3H-imidazo[4,5-c]pyridin-2-yl]-1,2-dihydropyridin-2-one] |
| 0.2 to 1.2 | O=c1ccc(-c2nc3ccncc3n2-c2ccc(Cl)cc2F)c[nH]1 [Example 35, 5-[3-(4-Chloro-2-fluorophenyl)-3H-imidazo[4,5-c]pyridin-2-yl]-1,2-dihydropyridin-2-one] |
| 0.05 to 0.2 | Cc1ccc(-n2c(-c3cnc(N4C[C@@H](C)O[C@@H](C)C4)nc3)nc3ccncc32)nc1 [Example 36, (2R,6S)-2,6-Dimethyl-4-{5-[3-(5-methylpyridin-2-yl)-3H-imidazo[4,5-c]pyridin-2-yl]pyrimidin-2-yl}morpholine] |
| 0.05 to 0.2 | CC(C)OCCNc1ncc(-c2nc3ccncc3n2-c2ccc(F)cc2)cn1 [Example 38, 5-[3-(4-Fluorophenyl)-3H-imidazo[4,5-c]pyridin-2-yl]-N-[2-(propan-2-yloxy)ethyl]pyrimidin-2-amine] |
| 0.05 to 0.2 | CN1CCN(c2ncc(-c3nc4ccncc4n3-c3ccc(F)cc3)cn2)CC1=O [Example 40, 4-{5-[3-(4-Fluorophenyl)-3H-imidazo[4,5-c]pyridin-2-yl]pyrimidin-2-yl}-1-methylpiperazin-2-one] |
| 0.05 to 0.2 | CCOCCNc1ncc(-c2nc3ccncc3n2-c2ccc(F)cc2)cn1 [Example 42, N-(2-Ethoxyethyl)-5-[3-(4-fluorophenyl)-3H-imidazo[4,5-c]pyridin-2-yl]pyrimidin-2-amine] |
| 0.2 to 1.2 | Clc1ccc(-n2c(-c3cnc[nH]3)nc3ccncc32)cc1 [Example 44, 5-[3-(4-Chlorophenyl)-3H-imidazo[4,5-c]pyridin-2-yl]-1H-imidazole] |
| 0.2 to 1.2 | CN1CCN(Cc2cccc(-c3nc4ccncc4n3-c3ccc(Cl)cc3)c2)CC1 [Example 45, 1-({3-[3-(4-Chlorophenyl)-3H-imidazo[4,5-c]pyridin-2-yl]phenyl}methyl)-4-methylpiperazine; formic acid] |
| 0.2 to 1.2 | Cc1ccc(-n2c(-c3cnc(N4CCOCC4)nc3)nc3ccncc32)c(F)c1 [Example 53, 4-{5-[3-(2-Fluoro-4-methylphenyl)-3H-imidazo[4,5-c]pyridin-2-yl]pyrimidin-2-yl}morpholine] |
